Results published in PMC4379526 (2015).

Tested on: OTA aptabeacon (DNA, aptamer) CGCGCTGGATCGGGTGTGGGTGGCGTAAAGGGAGCATCGGACACAGCGCG
Assay: molecular beacon fluorescence, real-time PCR cycler
Details: 120 mM NaCl, 5 mM KCl, 20 mM CaCl2, 10 mM Tris pH 8.5, 30 °C

| Kd (1 µM aptabeacon, calculated from Kd = [A][L]/[AL]) | SMILES | binding (2 µM toxin, peak area 67–88% lower than OTA) |
| --- | --- | --- |
| 800 nM | C[C@@H]1Cc2c(Cl)cc(C(=O)N[C@@H](Cc3ccccc3)C(=O)O)c(O)c2C(=O)O1 |  |
|  | C[C@@H]1Cc2ccc(C(=O)N[C@@H](Cc3ccccc3)C(=O)O)c(O)c2C(=O)O1 | weak |
